Measured values from patent publication US9187467B2, “2-phenyl benzothiazole linked imidazole compounds as potential anticancer agents and process for the preparation thereof” (Council of Scientific and Industrial Research, priority 2012, dated 2015).
Read-outs that look alike come from different tables or passages of the source.

Assays:
Format in all cases: cell-based, human
K-562 = test: SRB anticancer assay, leukemia; details: Homo sapiens, K562; K-562, 48 h
SR = test: SRB anticancer assay, leukemia; details: Homo sapiens, 48 h
A549/ATCC = test: SRB anticancer assay, non-small lung; parameters: Log10GI50: unit not given here; details: for GI50: Homo sapiens, 48 h
NCI-H23 = test: SRB anticancer assay, non-small lung; details: for GI50: Homo sapiens, NCI-H23, 48 h
NCI-H322M = test: SRB anticancer assay, non-small lung; details: Homo sapiens, 48 h
NCI-H460 = test: SRB anticancer assay, non-small lung; details: Homo sapiens, NCI-H460, 48 h
HCT-116 = test: SRB anticancer assay, colon; details: Homo sapiens, HCT-116, 48 h
HT29 = test: SRB anticancer assay, colon; details: Homo sapiens, HT-29; HT29, 48 h
KM12 = test: SRB anticancer assay, colon; details: Homo sapiens, KM12, 48 h
SF-295 = test: SRB anticancer assay, CNS; parameters: Log10GI50: unit not given here; details: for GI50: Homo sapiens, SF-295, 48 h
SNB-19 = test: SRB anticancer assay, CNS; parameters: Log10GI50: unit not given here; details: for GI50: Homo sapiens, SNB-19, 48 h
SNB-75 = test: SRB anticancer assay, CNS; parameters: Log10GI50: unit not given here; details: for GI50: Homo sapiens, SNB-75, 48 h
OVCAR-3 = test: SRB anticancer assay, ovarian; parameters: Log10GI50: unit not given here; details: for GI50: Homo sapiens, OVCAR-3, 48 h
OVCAR-4 = test: SRB anticancer assay, ovarian; details: Homo sapiens, OVCAR-4, 48 h
OVCAR-5 = test: SRB anticancer assay, ovarian; details: Homo sapiens, OVCAR-5, 48 h
OVCAR-8 = test: SRB anticancer assay, ovarian; parameters: Log10GI50: unit not given here; details: for GI50: Homo sapiens, OVCAR-8, 48 h
SK-OV-3 = test: SRB anticancer assay, ovarian; details: Homo sapiens, SK-OV-3, 48 h
786-0 = test: SRB anticancer assay, renal; details: for GI50: Homo sapiens, 786-0, 48 h
A498 = test: SRB anticancer assay, renal; parameters: Log10GI50: unit not given here; details: for GI50: Homo sapiens, A498, 48 h
SN12C = test: SRB anticancer assay, renal; parameters: Log10GI50: unit not given here; details: for GI50: Homo sapiens, 48 h
RXF 393 = test: SRB anticancer assay, renal; parameters: Log10GI50: unit not given here; details: for GI50: Homo sapiens, RXF 393, 48 h
DU-145 = test: SRB anticancer assay, prostate; parameters: Log10GI50: unit not given here; details: for GI50: Homo sapiens, DU-145, 48 h
MCF7 = test: SRB anticancer assay, breast; details: Homo sapiens, MCF7, 48 h
MDA-MB-231/ATCC = test: SRB anticancer assay, breast; parameters: Log10GI50: unit not given here; details: for GI50: Homo sapiens, MDA-MB-231, 48 h, 48 h, read-out: GI50
HS 578T = test: SRB anticancer assay, breast; parameters: Log10GI50: unit not given here; details: for GI50: Homo sapiens, 48 h
MALME-3M = test: SRB anticancer assay, melanoma; parameters: Log10GI50: unit not given here; details: for GI50: Homo sapiens, Malme-3M, 48 h
SK-MEL-2 = test: SRB anticancer assay, melanoma; details: Homo sapiens, SK-MEL-2, 48 h
SK-MEL-5 = test: SRB anticancer assay, melanoma; details: Homo sapiens, SK-MEL-5, 48 h
UACC-257 = test: SRB anticancer assay, melanoma; details: for GI50: Homo sapiens, UACC-257, 48 h
Breast cancer cell lines = test: SRB anticancer assay, panel result; details: for mean graph midpoint value (MG_MID) of log10 TGI: total inhibition of net cell growth; for CC50 / GI50: Homo sapiens; for CC50: 50% net cell death, read-out: mean graph midpoint value (MG_MID) of Log10 LC50 (converted)
Experimental: The compounds were evaluated for anticancer activity against sixty human cancer cells derived from nine cancer types (leukemia cell line, non-small-cell lung cell line, colon cell line, CNS cell line, melanoma cell line, ovarian cell line, prostate cell line, renal cancer cell line and breast cancer cell line) as shown in Table 1. For each compound, dose response curves for each cell line were measured at a minimum of five concentrations at 10 fold dilutions. A protocol of 48 h continuous drug exposure was used and a sulforhodamine B (SRB) protein assay was used to estimate cell viability or growth.

SF-268 = test: SRB anticancer assay, CNS; parameters: Log10GI50: unit not given here; details: for GI50: Homo sapiens, SF-268, 48 h
SK-MEL-28 = test: SRB anticancer assay, melanoma; parameters: Log10GI50: unit not given here; details: for GI50: Homo sapiens, SK-MEL-28, 48 h
[1] = MDA-MB-231/ATCC (row head MDA-MB-)
[2] = Breast panel, read-out: mean graph midpoint value (MG_MID) of Log10 GI50 (converted)
[3] = six breast cancer cell lines, exposure at least 48 h, read-out: GI50, range over the panel
[4] = row head printed 231/ATCC (second line of MDA-MB-231/ATCC)

COc1cc(OC)c2sc(-c3ccc(-n4cncc4-c4cc(OC)c(OC)c(OC)c4)cc3)nc2c1 [Compound 6f, 5,7-Dimethoxy-2-(4-(5-(3,4,5-trimethoxyphenyl)-1H-imidazol-1-yl)phenyl)benzo[d]thiazole]
GI50 (K-562): 3.83 µM | GI50 (SR): 3.24 µM | GI50 (A549/ATCC): 6.16 µM | GI50 (NCI-H23): 6.15 µM | GI50 (NCI-H322M): > 100 µM | GI50 (NCI-H460): 4.67 µM | GI50 (HCT-116): 3.92 µM | GI50 (HT29): 4.88 µM | GI50 (KM12): 4.62 µM | GI50 (SF-295): 4.42 µM | GI50 (SNB-19): > 100 µM | GI50 (SNB-75): 6.47 µM | GI50 (OVCAR-3): 3.26 µM | GI50 (OVCAR-4): 3.25 µM | GI50 (OVCAR-5): > 100 µM | GI50 (OVCAR-8): > 100 µM | GI50 (SK-OV-3): > 100 µM | GI50 (786-0): 7.38 µM | GI50 (A498): 1.83 µM | GI50 (SN12C): > 100 µM | GI50 (RXF 393): 2.8 µM | GI50 (DU-145): > 100 µM | GI50 (MCF7): 3.88 µM | GI50 (MDA-MB-231/ATCC; [1]): 3.51 µM | GI50 (HS 578T): 5.23 µM | GI50 (MALME-3M): 3.73 µM | GI50 (SK-MEL-2): 6.09 µM | GI50 (SK-MEL-5): 2.46 µM | GI50 (UACC-257): > 100 µM | mean graph midpoint value (MG_MID) of log10 TGI (Breast cancer cell lines; Breast panel): >−4.0 | CC50 (Breast cancer cell lines; Breast panel): > 100 µM | GI50 (Breast cancer cell lines; [2]): 3.8 µM | GI50 (Breast cancer cell lines; [3]): 3.27 to 5.23 µM

COc1cc(OC)cc(-c2cncn2-c2ccc(-c3nc4cc(OC)cc(OC)c4s3)cc2)c1 [Compound 6d, 2-(4-(5-(3,5-Dimethoxyphenyl)-1H-imidazol-1-yl)phenyl)-5,7-dimethoxybenzo[d]thiazole]
GI50 (K-562): 3.22 µM | GI50 (SR): 3.3 µM | GI50 (NCI-H23): 10.3 µM | GI50 (NCI-H322M): > 100 µM | GI50 (NCI-H460): 4.41 µM | GI50 (HCT-116): 4.93 µM | GI50 (KM12): 4.52 µM | GI50 (SF-268): 11.3 µM | GI50 (SF-295): 2.4 µM | GI50 (SNB-19): > 100 µM | GI50 (SNB-75): 3.28 µM | GI50 (OVCAR-3): 2.87 µM | GI50 (OVCAR-5): > 100 µM | GI50 (OVCAR-8): 14.5 µM | GI50 (SK-OV-3): 4.69 µM | GI50 (786-0): 7.6 µM | GI50 (A498): 3.15 µM | GI50 (SN12C): > 100 µM | GI50 (RXF 393): 6.58 µM | GI50 (MCF7): 3.82 µM | GI50 (MDA-MB-231/ATCC; [1]): 9.01 µM | GI50 (MDA-MB-231/ATCC; [4]): 5.02 µM | GI50 (HS 578T): 3.09 µM | GI50 (SK-MEL-2): 9.69 µM | GI50 (SK-MEL-28): > 100 µM | GI50 (SK-MEL-5): 3.29 µM | GI50 (UACC-257): > 100 µM | mean graph midpoint value (MG_MID) of log10 TGI (Breast cancer cell lines; Breast panel): >−4.0 | CC50 (Breast cancer cell lines; Breast panel): > 100 µM | GI50 (Breast cancer cell lines; [2]): 4.57 µM | GI50 (Breast cancer cell lines; [3]): 3.09 to 9.01 µM

COc1cc2nc(-c3ccc(-n4cncc4-c4ccc(N)cc4)cc3)sc2c(OC)c1OC [Compound 7h, 4-(1-(4-(5,6,7-Trimethoxybenzo[d]thiazol-2-yl)phenyl)-1H-imidazol-5-yl)benzenamine]
GI50 (SR): 1.4 µM | GI50 (A549/ATCC): 3.14 µM | Log10GI50 (A549/ATCC; present compounds): −5.50 | GI50 (NCI-H23): 3.87 µM | Log10GI50 (NCI-H23; NCI-H23, present compounds): −5.41 log10(M) | GI50 (NCI-H322M): 2.07 µM | GI50 (NCI-H460): 5.13 µM | GI50 (HCT-116): 3.81 µM | GI50 (HT29): 2.79 µM | GI50 (SF-268): 12.3 µM | Log10GI50 (SF-268; SF-268, present compounds): −4.91 | GI50 (SF-295): 1.53 µM | Log10GI50 (SF-295; SF-295, present compounds): −5.82 | GI50 (SNB-19): 12.3 µM | Log10GI50 (SNB-19; SNB-19, present compounds): −4.91 | GI50 (SNB-75): 5.94 µM | Log10GI50 (SNB-75; SNB-75, present compounds): −5.23 | GI50 (OVCAR-3): 2.73 µM | Log10GI50 (OVCAR-3; OVCAR-3, present compounds): −5.56 | GI50 (OVCAR-4): 3.6 µM | GI50 (OVCAR-5): 34.3 µM | GI50 (OVCAR-8): 4.23 µM | Log10GI50 (OVCAR-8; OVCAR-8, present compounds): −5.37 | GI50 (SK-OV-3): 11.7 µM | Log10GI50 (786-0; 786-0, present compounds): −5.20 log10 M | GI50 (786-0): 6.26 µM | Log10GI50 (A498; A498, present compounds): −5.67 | GI50 (A498): 2.13 µM | GI50 (SN12C): 8.95 µM | Log10GI50 (SN12C; present compounds): −5.05 | GI50 (RXF 393): 4.41 µM | Log10GI50 (RXF 393; RXF 393, present compounds): −5.36 | Log10GI50 (DU-145; DU-145, present compounds): −5.04 | GI50 (DU-145): 7.25 µM | GI50 (MCF7): 3.02 µM | GI50 (MDA-MB-231/ATCC; [1]): 3.65 µM | GI50 (MDA-MB-231/ATCC; [4]): 5.36 µM | Log10GI50 (MDA-MB-231/ATCC; MDA-MB-231/ATCC, present compounds): −5.44 | Log10GI50 (HS 578T; present compounds): −5.27 | GI50 (MALME-3M): 0.71 µM | Log10GI50 (MALME-3M; MALME-3M, present compounds): −6.15 | GI50 (SK-MEL-28): > 100 µM | Log10GI50 (SK-MEL-28; SK-MEL-28, present compounds): >−4.0 | GI50 (SK-MEL-5): 2.74 µM | GI50 (UACC-257): 6.4 µM | Log10GI50 (UACC-257; UACC-257, present compounds): −5.19 log10(M) | mean graph midpoint value (MG_MID) of log10 TGI (Breast cancer cell lines; Breast panel): −4.47 | CC50 (Breast cancer cell lines; Breast panel): > 100 µM | GI50 (Breast cancer cell lines; [2]): 2.82 µM | GI50 (Breast cancer cell lines; [3]): 1.59 to 5.36 µM
